Data published in ChEMBL document CHEMBL5727585, “Carboxylic acid URAT1 inhibitor containing diarylmethane structure, preparation method and use thereof” (2020).

Target: T1, Solute carrier family 22 member 12 (Homo sapiens, UniProt Q96S37)
T1 sequence (Q96S37 whole entry): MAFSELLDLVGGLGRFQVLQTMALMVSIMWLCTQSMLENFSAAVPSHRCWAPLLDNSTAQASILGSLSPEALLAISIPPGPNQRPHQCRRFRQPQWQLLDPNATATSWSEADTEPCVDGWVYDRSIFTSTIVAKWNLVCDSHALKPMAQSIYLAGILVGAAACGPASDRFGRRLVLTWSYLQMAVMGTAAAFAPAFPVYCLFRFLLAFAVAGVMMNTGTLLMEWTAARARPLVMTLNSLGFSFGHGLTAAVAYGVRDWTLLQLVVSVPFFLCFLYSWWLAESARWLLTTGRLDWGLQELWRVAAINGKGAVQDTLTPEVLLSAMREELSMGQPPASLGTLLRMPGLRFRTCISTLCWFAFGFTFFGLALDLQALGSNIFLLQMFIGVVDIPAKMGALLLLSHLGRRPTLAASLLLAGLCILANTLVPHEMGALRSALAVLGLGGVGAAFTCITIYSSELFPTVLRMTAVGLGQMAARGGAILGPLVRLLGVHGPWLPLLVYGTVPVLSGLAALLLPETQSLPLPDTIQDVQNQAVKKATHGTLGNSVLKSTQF
Assay: IC50 for Inhibition of the Test Compounds on URAT1: After trypsin digestion, the expression cells (HEK293) stably expressing URAT1 gene and mock cells were all inoculated into lysine-coated 24-well culture plates, with the cell inoculation density being 1×10^5 cells/well, and cultured in incubator at 37° C., 5% CO2 and saturated humidity for 2 days. The culture fluid in the culture plate was removed, and the cultured cells were washed twice with DPBS and subjected to warm bath in DPBS buffer solution at 37° C. for 10 min, and then a solution (500 μL) containing radioactive labeled probe substrate ([8-14C] uric acid) and 10 μM test compound (or blank) was used to substitute for DPBS, with the concentration of [8-14C] uric acid being 30 μM and the radiation intensity per well being 0.867 μCi. After 2 min, the reaction was terminated with ice-bathed DPBS buffer solution and washing was carried out for three times. Then 0.1 mol/L NaOH (500 μL) was added into each well to lyse the cells, the lysate was extracted into a scintillation vial and a scintillation fluid (Aquasol-2, 3 mL) was added, and the intensity of radioactivity in the sample was measured using a Tri-Carb 2910TR liquid scintillation analyzer (PerkinElmer, Waltham, USA). […] […]

Row | Compound | IC50 [nM]
1 | CC(C)(Sc1nnc(Br)n1-c1ccc(C2CC2)c2ccccc12)C(=O)O | 2130
2 | O=C(O)CCc1nnc(Br)n1-c1ccc(C2CC2)c2ccccc12 | 1810
